Data: PubChem BioAssay AID248 (DTP/NCI, 2004)
Several values for one entry are separate records, joined by “and”; a condition that tells them apart may be missing. Equal values may be shown once. Toxic doses and inconclusive results are not listed. Cut-off read from the data, not from the text of the source: active = T/C of 150% or more; inactive = T/C below 125%. Square brackets hold non-standard residues; d marks the D form. Peptide text beside a SMILES is read from it. * marks the point of attachment. ξ: configuration not given here. Cbz = O=C(OCc1ccccc1)*; ξI = CCC(C)C(N)C(=O)O

Tested on: L1210 leukemia ip in BDF1 mice, survival T/C
Experiment: NCI In Vivo Anticancer Drug Screen. Data for tumor model L1210 Leukemia (intraperitoneal) in B6D2F1 (BDF1) mice
Settings: endpoint: mean survival time, higher = longer survival
Method in brief: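 Antitumor effect is assessed in tumor-bearing animals. Survival in the compound arm is compared with a vehicle-dosed control arm and expressed as their quotient.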

[1] = dose: 50.0 mg/kg/injection, schedule: Q01DX001 (ip), vehicle: other
[2] = dose: 100.0 mg/kg/injection, schedule: Q01DX001 (ip), vehicle: other
[3] = dose: 200.0 mg/kg/injection, schedule: Q01DX001 (ip), vehicle: other
[4] = dose: 400.0 mg/kg/injection, schedule: Q01DX001 (ip), vehicle: other
[5] = dose: 100.0 mg/kg/injection, schedule: Q04DX003 (ip), vehicle: saline with Tween-80
[6] = dose: 200.0 mg/kg/injection, schedule: Q04DX003 (ip), vehicle: saline with Tween-80
[7] = dose: 400.0 mg/kg/injection, schedule: Q04DX003 (ip), vehicle: saline with Tween-80
[8] = dose: 100.0 mg/kg/injection, schedule: Q01DX001 (ip), vehicle: saline
[9] = dose: 200.0 mg/kg/injection, schedule: Q01DX001 (ip), vehicle: saline
[10] = dose: 400.0 mg/kg/injection, schedule: Q01DX001 (ip), vehicle: saline
[11] = dose: 100.0 mg/kg/injection, schedule: Q01DX009 (ip), vehicle: saline with Tween-80
[12] = dose: 200.0 mg/kg/injection, schedule: Q01DX009 (ip), vehicle: saline with Tween-80
[13] = dose: 100.0 mg/kg/injection, schedule: Q01DX009 (ip), vehicle: Klucel (hydroxypropylcellulose) (HPC)
[14] = dose: 200.0 mg/kg/injection, schedule: Q01DX009 (ip), vehicle: Klucel (hydroxypropylcellulose) (HPC)
[15] = dose: 400.0 mg/kg/injection, schedule: Q01DX009 (ip), vehicle: Klucel (hydroxypropylcellulose) (HPC)
[16] = dose: 100.0 mg/kg/injection, schedule: Q04DX003 (ip), vehicle: saline
[17] = dose: 100.0 mg/kg/injection, schedule: Q01DX001 (ip), vehicle: carboxymethylcellulose (CMC)
[18] = dose: 200.0 mg/kg/injection, schedule: Q01DX001 (ip), vehicle: carboxymethylcellulose (CMC)
[19] = dose: 400.0 mg/kg/injection, schedule: Q01DX001 (ip), vehicle: carboxymethylcellulose (CMC)
[20] = dose: 75.0 mg/kg/injection, schedule: Q01DX001 (ip), vehicle: saline
[21] = dose: 200.0 mg/kg/injection, schedule: Q04DX003 (ip), vehicle: saline
[22] = dose: 400.0 mg/kg/injection, schedule: Q04DX003 (ip), vehicle: saline
[23] = dose: 100.0 mg/kg/injection, schedule: Q01DX009 (ip), vehicle: carboxymethylcellulose (CMC)
[24] = dose: 100.0 mg/kg/injection, schedule: Q04DX002 (ip), vehicle: carboxymethylcellulose (CMC)
[25] = dose: 100.0 mg/kg/injection, schedule: Q04DX003 (ip), vehicle: carboxymethylcellulose (CMC)
[26] = dose: 200.0 mg/kg/injection, schedule: Q04DX002 (ip), vehicle: carboxymethylcellulose (CMC)
[27] = dose: 200.0 mg/kg/injection, schedule: Q04DX003 (ip), vehicle: carboxymethylcellulose (CMC)
[28] = dose: 400.0 mg/kg/injection, schedule: Q01DX009 (ip), vehicle: carboxymethylcellulose (CMC)
[29] = dose: 400.0 mg/kg/injection, schedule: Q04DX002 (ip), vehicle: carboxymethylcellulose (CMC)
[30] = dose: 400.0 mg/kg/injection, schedule: Q04DX003 (ip), vehicle: carboxymethylcellulose (CMC)

Measured: T/C

CCOC(=O)c1[nH]cnc1/N=N/N(C1CCCCC1)C1CCCCC1
inactive: [1] 94 % of control | [2] 97 % of control | [3] 102 % of control | [4] 92 % of control

CCC(C)C(NC(=O)CNC(=O)OCc1ccccc1)C(=O)OC (stereo not drawn) (Cbz-Gly-[ξI]-OMe)
inactive: [5] 101 % of control | [6] 98 % of control | [7] 96 % of control

O=C(O)C1C2CC3CC(C2)CC1C3 (stereo not given)
inactive: dose: 100.0 mg/kg/injection, schedule: Q04DX002 (ip), vehicle: Klucel (hydroxypropylcellulose) (HPC) 105 % of control | dose: 200.0 mg/kg/injection, schedule: Q04DX002 (ip), vehicle: Klucel (hydroxypropylcellulose) (HPC) 94 % of control and 110 % of control | dose: 400.0 mg/kg/injection, schedule: Q04DX002 (ip), vehicle: Klucel (hydroxypropylcellulose) (HPC) 113 % of control | dose: 600.0 mg/kg/injection, schedule: Q04DX002 (ip), vehicle: Klucel (hydroxypropylcellulose) (HPC) 94 % of control

Cc1ccc(S(=O)(=O)N(CC(=O)O)c2ccccc2-c2ccccc2)cc1
inactive: [8] 100 % of control | [9] 89 % of control | [10] 100 % of control

CCCC(C)C(C(=O)O)c1ccccc1 (stereo not given)
inactive: [11] 102 % of control | [5] 117 % of control | [12] 104 % of control | [6] 100 % of control | dose: 400.0 mg/kg/injection, schedule: Q01DX009 (ip), vehicle: saline with Tween-80 100 % of control | [7] 99 % of control

O=C(NO)c1ccc([N+](=O)[O-])cc1
inactive: [13] 92 % of control | dose: 180.0 mg/kg/injection, schedule: Q01DX015 (ip), vehicle: water 101 % of control | [14] 103 % of control | dose: 270.0 mg/kg/injection, schedule: Q01DX015 (ip), vehicle: water 107 % of control and 117 % of control and 119 % of control | dose: 400.0 mg/kg/injection, schedule: Q01DX001 (ip), vehicle: water 97 % of control | [15] 109 % of control | dose: 600.0 mg/kg/injection, schedule: Q01DX001 (ip), vehicle: water 97 % of control

C1CC2CCC1CNC2
inactive: dose: 50.0 mg/kg/injection, schedule: Q04DX003 (ip), vehicle: saline 104 % of control | [16] 106 % of control

O=C(N/N=C/c1cccc([N+](=O)[O-])c1)c1ccc(Cl)c(Cl)c1
inactive: dose: 50.0 mg/kg/injection, schedule: Q01DX009 (ip), vehicle: saline with Tween-80 93 % of control | [11] 93 % of control | [12] 90 % of control

COC(=O)Nc1cccc(C)c1C
inactive: dose: 100.0 mg/kg/injection, schedule: Q04DX003 (ip), vehicle: other 103 % of control | dose: 200.0 mg/kg/injection, schedule: Q04DX003 (ip), vehicle: other 102 % of control | dose: 400.0 mg/kg/injection, schedule: Q04DX003 (ip), vehicle: other 108 % of control

CC(CN=Cc1ccc(N(CCCl)CCCl)cc1)N=Cc1ccc(N(CCCl)CCCl)cc1 (stereo not given)
inactive: dose: 50.0 mg/kg/injection, schedule: Q01DX001 (ip), vehicle: carboxymethylcellulose (CMC) 109 % of control | [17] 111 % of control | [18] 109 % of control | [19] 111 % of control

CC1(c2cccc3ccccc23)NC(=O)c2ccccc2N1 (stereo not given)
inactive: dose: 50.0 mg/kg/injection, schedule: Q01DX009 (ip), vehicle: Klucel (hydroxypropylcellulose) (HPC) 98 % of control | [13] 103 % of control | dose: 150.0 mg/kg/injection, schedule: Q01DX009 (ip), vehicle: Klucel (hydroxypropylcellulose) (HPC) 101 % of control

Cc1cc2c(cc1C)N(C(=O)CN1CCCCC1)CC(=O)N2
inactive: [20] 93 % of control | dose: 150.0 mg/kg/injection, schedule: Q01DX001 (ip), vehicle: saline 91 % of control | dose: 300.0 mg/kg/injection, schedule: Q01DX001 (ip), vehicle: saline 93 % of control

CCOC(=O)c1cc(OC(C)=O)c2c(ccc3ccccc32)c1C
inactive: [13] 98 % of control | [14] 88 % of control | [15] 91 % of control

COC1/C=C\OC2(C)Oc3c(C)c(O)c4c(O)c(c(/C=N\OCCCc5ccccc5)c(O)c4c3C2=O)NC(=O)/C(C)=C\C=C/C(C)C(O)C(C)C(O)C(C)C(OC(C)=O)C1C (stereo not given)
inactive: dose: 25.0 mg/kg/injection, schedule: Q04DX003 (ip), vehicle: water 96 % of control | dose: 50.0 mg/kg/injection, schedule: Q04DX003 (ip), vehicle: water 104 % of control | dose: 100.0 mg/kg/injection, schedule: Q04DX003 (ip), vehicle: water 100 % of control | dose: 200.0 mg/kg/injection, schedule: Q04DX003 (ip), vehicle: water 100 % of control

COc1ccc(/C=C2\CN(CCCC(=O)O)C(=O)C2=O)cc1
inactive: [8] 103 % of control | [16] 100 % of control | [9] 98 % of control | [21] 100 % of control | [10] 100 % of control | [22] 100 % of control

CCN(CC)CCSC(=O)C(O)(c1ccccc1)c1ccccc1
inactive: [20] 100 % of control

O=C(Nc1ccccc1O)C(O)C(O)C(O)C(O)CO (stereo not given)
inactive: [16] 87 % of control | [21] 97 % of control | [22] 91 % of control

O=S1(=O)Oc2c(Cl)cc(Cl)cc2S(=O)(=O)Oc2c(Cl)cc(Cl)cc21
inactive: dose: 100.0 mg/kg/injection, schedule: Q01DX001 (ip), vehicle: Klucel (hydroxypropylcellulose) (HPC) 105 % of control | dose: 200.0 mg/kg/injection, schedule: Q01DX001 (ip), vehicle: Klucel (hydroxypropylcellulose) (HPC) 105 % of control | dose: 400.0 mg/kg/injection, schedule: Q01DX001 (ip), vehicle: Klucel (hydroxypropylcellulose) (HPC) 98 % of control

CN(C)c1ccc(C=Nc2ccc(N(C)C)cc2)cc1
inactive: [17] 105 % of control | [23] 96 % of control and 92 % of control | [24] 102 % of control and 104 % of control | [25] 102 % of control | [18] 93 % of control | dose: 200.0 mg/kg/injection, schedule: Q01DX009 (ip), vehicle: carboxymethylcellulose (CMC) 86 % of control and 88 % of control | [26] 98 % of control and 105 % of control | [27] 92 % of control | [19] 88 % of control | [28] 86 % of control and 92 % of control | [29] 97 % of control and 100 % of control | [30] 92 % of control

CC(C)CN(CC(C)C)c1nn[nH]n1
inactive: dose: 100.0 mg/kg/injection, schedule: Q04DX003 (ip), vehicle: Klucel (hydroxypropylcellulose) (HPC) 92 % of control | dose: 200.0 mg/kg/injection, schedule: Q04DX003 (ip), vehicle: Klucel (hydroxypropylcellulose) (HPC) 98 % of control | dose: 400.0 mg/kg/injection, schedule: Q04DX003 (ip), vehicle: Klucel (hydroxypropylcellulose) (HPC) 98 % of control

CCOC(=O)C(=CC(CC)(C(=O)OCC)C(=O)OCC)C(=O)OCC
inactive: [8] 101 % of control | [9] 97 % of control | [10] 95 % of control

COc1ccc(OC)c(NC(=O)Nc2cccc(C(F)(F)F)c2)c1
inactive: dose: 25.0 mg/kg/injection, schedule: Q01DX009 (ip), vehicle: carboxymethylcellulose (CMC) 97 % of control and 87 % of control | dose: 50.0 mg/kg/injection, schedule: Q01DX009 (ip), vehicle: carboxymethylcellulose (CMC) 112 % of control and 88 % of control | [17] 103 % of control and 107 % of control | [23] 87 % of control | [24] 95 % of control and 89 % of control | [25] 103 % of control and 87 % of control | [18] 96 % of control and 89 % of control | [26] 92 % of control and 99 % of control | [27] 93 % of control and 87 % of control | [19] 94 % of control and 100 % of control | [28] 86 % of control | [29] 86 % of control | [30] 90 % of control

CC1CCC2C(C)C3C(CC4C5CCC6CC(O)CCC6(C)C5CCC43C)N2C1 (stereo not given)
inactive: [1] 91 % of control | [2] 88 % of control | [3] 96 % of control | [4] 91 % of control
